The structures appear in SMILES notation. Numbers after ± are expanded uncertainties.

The conditions of series [1]: Liquid; for mass density: 101.33 kPa.
Series [2] in a line: refractive index (Na D-line) (dimensionless). The note with it: 101.33 kPa, Liquid, Standard Abbe refractometry.

Take `ClC(Cl)=C(Cl)Cl` [tetrachloroethene]: the mass density (usually mass per unit of volume) in series [1] (298.15 K) is reported as 1614.3 ± 5 kg/m3. For the same compound, the vapor or sublimation pressure – broadly, the pressure of vapour in equilibrium with the condensed phase – in series [1] (392.25 K) worked out at 95.8 ± 9.6 kPa. Besides, the refractive index – broadly, a measure of how strongly the sample bends light – in series [2] (298.15 K) is listed as 1.5032 ± 0.0012.
`C1CCCCC1` [cyclohexane]: the mass density in series [1] (298.15 K) is 773.9 ± 2.3 kg/m3. For the same compound, the “vapor or sublimation pressure” value in series [1] (351.75 K) is recorded as 94.6 ± 9.5 kPa. Besides, the refractive index in series [2] (298.15 K) is reported as 1.4235 ± 0.0012.
Consider `CCC(C)O` (centres undefined) [butan-2-ol], for which the mass density in series [1] (298.15 K) is 802.4 ± 2.4 kg/m3. Also, the “vapor or sublimation pressure” value in series [1] (371.35 K) amounted to 95.8 ± 9.6 kPa. Further, the refractive index in series [2] (298.15 K) came to 1.3953 ± 0.0012.
Regarding `CCCCO` [butan-1-ol], in series [1] (298.15 K), the mass density stood at 805.8 ± 2.4 kg/m3. Besides, the “vapor or sublimation pressure” value in series [1] (389.45 K) came to 95.8 ± 9.6 kPa. The refractive index in series [2] (298.15 K) was 1.3974 ± 0.0012.
On to `CC(C)(C)O` [2-methylpropan-2-ol], for which, in series [1] (298.15 K), the mass density worked out at 781.2 ± 2.3 kg/m3. In addition, the “vapor or sublimation pressure” value in series [1] (354.15 K) was found to be 95.8 ± 9.6 kPa. In series [2] (298.15 K), the refractive index was found to be 1.385 ± 0.001.
Turning to `CC(C)CO` [2-methyl-1-propanol], the mass density in series [1] (298.15 K) came to 798 ± 2 kg/m3. The “vapor or sublimation pressure” value in series [1] (379.65 K) came out at 95.8 ± 19 kPa. In series [2] (298.15 K), the refractive index is recorded as 1.3939 ± 0.0012.
Turning to `CCCCCCC` [heptane], the mass density in series [1] (298.15 K) is reported as 679.5 ± 2 kg/m3. Besides, the “vapor or sublimation pressure” value in series [1] (369.35 K) amounted to 94.6 ± 9.5 kPa. In addition, in series [2] (298.15 K), the refractive index came out at 1.3851 ± 0.0012.
As to `ClC(Cl)C(Cl)Cl` [1,1,2,2-tetrachloroethane], in series [1] (298.15 K), the mass density is 1586.7 ± 4.9 kg/m3. Further, the “vapor or sublimation pressure” value in series [1] (417.35 K) and in series [1] (417.45 K) was 95.8 ± 9.7 kPa in each case. Moreover, the refractive index in series [2] (298.15 K) stood at 1.4914 ± 0.0012.
Take `CCC(C)=O` [butanone]: the mass density in series [1] (298.15 K) came to 799.7 ± 2.4 kg/m3. In series [1] (350.75 K), the “vapor or sublimation pressure” value is 94.6 ± 19 kPa. Besides, the refractive index in series [2] (298.15 K) is on record as 1.3769 ± 0.0012.
For the compound `C1CCOC1` [tetrahydrofuran], the mass density in series [1] (293.15 K) was found to be 889.2 ± 2.7 kg/m3. The “vapor or sublimation pressure” value in series [1] (337.15 K) stood at 94.6 ± 9.5 kPa; in series [1] (337.55 K) it was 95.8 ± 9.6 kPa. Further, in series [2] (293.15 K), the refractive index turned out to be 1.4072 ± 0.0012.
`ClC=C(Cl)Cl` [trichloroethene]: in series [1] (303.15 K), the mass density was 1451.4 ± 4.5 kg/m3. In series [1] (357.95 K), the “vapor or sublimation pressure” value came out at 95.8 ± 9.6 kPa. The refractive index in series [2] (298.15 K) came out at 1.475 ± 0.001.
As to `CC(Cl)(Cl)Cl` [1,1,1-trichloroethane], in series [1] (298.15 K), the mass density is on record as 1329.9 ± 4.1 kg/m3. Besides, the “vapor or sublimation pressure” value in series [1] (345.65 K) came out at 95.8 ± 9.6 kPa. Further, the refractive index in series [2] (298.15 K) is reported as 1.4359 ± 0.0012.
Turning to `ClCCCl` [1,2-dichloroethane], the mass density in series [1] (298.15 K) was found to be 1246.4 ± 3.8 kg/m3. In series [1] (355.25 K), the “vapor or sublimation pressure” value was determined as 95.8 ± 9.6 kPa. Besides, the refractive index in series [2] (298.15 K) came to 1.4421 ± 0.0012.
Consider `CCC(C)CO` (centres undefined) [2-methyl-1-butanol], for which the mass density in series [1] (298.15 K) stood at 815 ± 2.5 kg/m3. For the same compound, the “vapor or sublimation pressure” value in series [1] (400.35 K) is 95.8 ± 9.7 kPa. The refractive index in series [2] (298.15 K) is given as 1.4084 ± 0.0008.

Values taken from the NIST ThermoML archive (doi:10.1021/je030141r).
